Reference: US20240148821A1, “PHARMACEUTICAL USE OF CYCLIC PEPTIDE COMPOUND” (CHUGAI SEIYAKU KABUSHIKI KAISHA, priority 2021, published 2024)
Numbered stars: 1 amine (or outer) side, 2 acyl side, 3 side chain; on linkers, the order of the positions; unused ones are H or OH. Bridge positions count the residues as written; N and C are the ends. Square brackets hold non-standard residues; d marks the D form. Peptide text beside a SMILES is read from it. * marks the point of attachment. hPhe(3-Cl-4-CF3) = N[C@@H](CCc1ccc(C(F)(F)F)c(Cl)c1)C(=O)O; hPhe(3-F,4-CF3) = N[C@@H](CCc1ccc(C(F)(F)F)c(F)c1)C(=O)O; X49 = CN([C@@H](Cc1cccc(OC(F)(F)F)c1)C(=O)[*:2])[*:1]; X52 = CN([C@@H](Cc1ccccc1OC(F)(F)F)C(=O)[*:2])[*:1]; NMePhe(4-Cl) = CN[C@@H](Cc1ccc(Cl)cc1)C(=O)O; X51 = CN([C@@](C)(Cc1ccccc1)C(=O)[*:2])[*:1]; NMePhe(3-Me) = CN[C@@H](Cc1cccc(C)c1)C(=O)O; NMePhe(3-F) = CN[C@@H](Cc1cccc(F)c1)C(=O)O; NMeGly(cPent) = CN[C@H](C(=O)O)C1CCCC1; Phe(3-I) = N[C@@H](Cc1cccc(I)c1)C(=O)O; dβ3hPip = O=C(C[C@H]1CCCCN1[*:1])[*:2]; NMeY = CN[C@@H](Cc1ccc(O)cc1)C(=O)O; NMeCha = CN[C@@H](CC1CCCCC1)C(=O)O; NMeD = CN[C@@H](CC(=O)O)C(=O)O; NMeL = CN[C@@H](CC(C)C)C(=O)O; NMehSer = CN[C@@H](CCO)C(=O)O; NPrAla = CCCN[C@@H](C)C(=O)O; NMeV = CN[C@H](C(=O)O)C(C)C; d(β3hA) = C[C@@H](N)CC(=O)O; NMeA = CN[C@@H](C)C(=O)O; Nle = CCCC[C@H](N)C(=O)O; Piperidide = C1CCN(*)CC1; dNMeA = CN[C@H](C)C(=O)O; Ac5c = NC1(C(=O)O)CCCC1; Aze = O=C(O)[C@@H]1CCN1; Ac4c = NC1(C(=O)O)CCC1; NBuGly = CCCCNCC(=O)O; NPrGly = CCCNCC(=O)O; Sar = CNCC(=O)O

System: Human pancreatic cancer cell line AsPC-1 (G12D mutation Kras)
Test: AsPC-1 cell growth inhibition (AsPC-1 CGI)
Assay type: cell-based
Details: read-out: AsPC-1 cell growth inhibition, 50% growth inhibitory concentration (IC50 value); 96 hours, CellTiter-Glo, values classified in ranges
Experimental: Test compounds were serially dilated with dimethyl sulfoxide, and 200 nL was then dispensed to a U-bottom 96-well plate using Labcyte Echo. […] The cell suspension was dispensed to a. plate containing a test compound at 100 μL per well and incubated at 37° C. in a 5% carbon dioxide gas incubator. 96 hours later, 80 μL of CellTiter-Glo (Promega) was added to each well and fluorescence was measured.

SMILES | IC50
CC[C@H](C)[C@@H]1NC(=O)[C@H](CC(C)C)N(C)C(=O)C[C@@H](C(=O)N(C)C)N(C)C(=O)[C@H](C2CCCC2)N(C)C(=O)C2(CCCC2)NC(=O)[C@H](Cc2cccc(F)c2)N(C)C(=O)[C@H](CCc2ccc(C(F)(F)F)c(Cl)c2)NC(=O)CN(C)C(=O)[C@H](CC2CCCCC2)N(C)C(=O)[C@@H]2CCN2C(=O)[C@H](C)N(C)C1=O [Compound 95] ([NMeL]I[NMeA][Aze][NMeCha][Sar][hPhe(3-Cl-4-CF3)][NMePhe(3-F)][Ac5c][NMeGly(cPent)][NMeD]-NMe2; lactam N-11) | > 500 nM
CC[C@H](C)[C@@H]1NC(=O)[C@H](CC(C)C)N(C)C(=O)C[C@@H](C(=O)N(C)C)N(C)C(=O)[C@H](C2CCCC2)N(C)C(=O)[C@H](C(C)C)NC(=O)[C@H](C)N(C)C(=O)[C@H](CCc2ccc(C(F)(F)F)c(Cl)c2)NC(=O)CN(C)C(=O)[C@H](CC2CCCCC2)N(C)C(=O)[C@@H]2CCN2C(=O)[C@H](C)N(C)C1=O [Compound 102] ([NMeL]I[NMeA][Aze][NMeCha][Sar][hPhe(3-Cl-4-CF3)][NMeA]V[NMeGly(cPent)][NMeD]-NMe2; lactam N-11) | > 500 nM
CC[C@H](C)[C@@H]1NC(=O)[C@H](C)N(C)C(=O)C[C@@H](C)NC(=O)[C@H](C2CCCC2)N(C)C(=O)C2(CCCC2)NC(=O)[C@@H]2CCCN2C(=O)[C@H](CCc2ccc(C(F)(F)F)c(Cl)c2)NC(=O)[C@@H](C)N(C)C(=O)[C@H](C(C)C)N(C)C(=O)CN(C)C(=O)CN(C)C1=O [Compound 109] (cyclo([Ac5c][NMeGly(cPent)][d(β3hA)][NMeA]I[Sar][Sar][NMeV][dNMeA][hPhe(3-Cl-4-CF3)]P)) | > 500 nM
CCCC[C@@H]1NC(=O)[C@H](Cc2cccc(I)c2)NC(=O)CN(C)C(=O)[C@H](Cc2ccc(Cl)cc2)N(C)C(=O)CN(C)C(=O)CN(C)C(=O)[C@H]([C@@H](C)CC)NC(=O)[C@H](CC(C)C)N(C)C(=O)C[C@@H](C(=O)N2CCCCC2)N(C)C(=O)[C@H](CC(C)C)NC(=O)[C@H](Cc2ccccc2OC(F)(F)F)N(C)C1=O [Compound 111] ([NMeL]I[Sar][Sar][NMePhe(4-Cl)][Sar][Phe(3-I)][Nle][X52]L[NMeD]-Piperidide; lactam N-11) | > 500 nM
CCCN1C(=O)C[C@@H](C)NC(=O)[C@H](C(C)C)N(C)C(=O)C2(CCCC2)NC(=O)[C@@H]2CCCN2C(=O)[C@H](CCc2ccc(C(F)(F)F)c(Cl)c2)NC(=O)CN(C)C(=O)[C@H](CC2CCCCC2)N(C)C(=O)CN(C)C(=O)CN(C)C(=O)[C@H]([C@@H](C)CC)NC(=O)[C@@H]1C [Compound 114] (cyclo([Ac5c][NMeV][d(β3hA)][NPrAla]I[Sar][Sar][NMeCha][Sar][hPhe(3-Cl-4-CF3)]P)) | > 500 nM
CCCN1CC(=O)N(C)CC(=O)N(C)[C@@H](CC2CCCCC2)C(=O)N(C)CC(=O)N[C@@H](CCc2ccc(C(F)(F)F)c(Cl)c2)C(=O)N2CCC[C@H]2C(=O)NC2(CCCC2)C(=O)N(C)[C@@H](C(C)C)C(=O)N[C@H](C)CC(=O)N(C)[C@@H](CC(C)C)C(=O)N[C@@H]([C@@H](C)CC)C1=O [Compound 116] (cyclo([Ac5c][NMeV][d(β3hA)][NMeL]I[NPrGly][Sar][NMeCha][Sar][hPhe(3-Cl-4-CF3)]P)) | > 500 nM
CC[C@H](C)[C@@H]1NC(=O)[C@H](C)N(C)C(=O)C[C@@H](C)NC(=O)[C@H](C2CCCC2)N(C)C(=O)C2(CCCC2)NC(=O)[C@@H]2CCCN2C(=O)[C@H](CCc2ccc(C(F)(F)F)c(Cl)c2)NC(=O)[C@@H](C)N(C)C(=O)[C@H](Cc2cccc(C)c2)N(C)C(=O)[C@@H]2CCN2C(=O)[C@H](C)N(C)C1=O [Compound 117] (cyclo([Ac5c][NMeGly(cPent)][d(β3hA)][NMeA]I[NMeA][Aze][NMePhe(3-Me)][dNMeA][hPhe(3-Cl-4-CF3)]P)) | > 500 nM
CCCCN1CC(=O)N(C)CC(=O)N(C)[C@@H](CC2CCCCC2)C(=O)N(C)CC(=O)N[C@@H](CCc2ccc(C(F)(F)F)c(Cl)c2)C(=O)N2CCC[C@H]2C(=O)NC2(CCCC2)C(=O)N(C)[C@@H](C(C)C)C(=O)N[C@H](C)CC(=O)N(C)[C@@H](CC(C)C)C(=O)N[C@@H]([C@@H](C)CC)C1=O [Compound 123] (cyclo([Ac5c][NMeV][d(β3hA)][NMeL]I[NBuGly][Sar][NMeCha][Sar][hPhe(3-Cl-4-CF3)]P)) | > 500 nM
CCCC[C@@H]1NC(=O)[C@H](Cc2cccc(I)c2)NC(=O)CN(C)C(=O)[C@H](Cc2ccc(OC)cc2)N(C)C(=O)CN(C)C(=O)CN(C)C(=O)[C@H]([C@@H](C)CC)NC(=O)[C@H](CC(C)C)N(C)C(=O)C[C@@H](C(=O)N2CCCCC2)N(C)C(=O)[C@H](CC(C)C)NC(=O)[C@](C)(Cc2ccccc2)N(C)C1=O [Compound 125] ([NMeL]I[Sar][Sar][NMeY](Me)[Sar][Phe(3-I)][Nle][X51]L[NMeD]-Piperidide; lactam N-11) | > 500 nM
CC[C@H](C)[C@@H]1NC(=O)[C@H](CC(C)C)N(C)C(=O)C[C@@H](C)NC(=O)[C@H](CC(C)C)N(C)C(=O)C2(CCC2)NC(=O)[C@@H]2CCCN2C(=O)[C@H](CCc2ccc(C(F)(F)F)c(F)c2)NC(=O)CN(C)C(=O)[C@H](CC2CCCCC2)N(C)C(=O)CN(C)C(=O)CN(C)C1=O [Compound 133] (cyclo([Ac4c][NMeL][d(β3hA)][NMeL]I[Sar][Sar][NMeCha][Sar][hPhe(3-F,4-CF3)]P)) | > 500 nM
CC[C@H](C)[C@@H]1NC(=O)[C@H](C)N(C)C(=O)C[C@@H](C(=O)N2CCCCC2)N(C)C(=O)[C@H](C(C)C)N(C)C(=O)C2(CCCC2)NC(=O)[C@@H]2CCCN2C(=O)[C@H](CCc2ccc(C(F)(F)F)c(Cl)c2)NC(=O)[C@H]2CCCN2C(=O)[C@H](CC2CCCCC2)N(C)C(=O)CN(C)C(=O)CN(C)C1=O [Compound 135] ([NMeA]I[Sar][Sar][NMeCha][dP][hPhe(3-Cl-4-CF3)]P[Ac5c][NMeV][NMeD]-Piperidide; lactam N-11) | > 500 nM
CC[C@H](C)[C@@H]1NC(=O)[C@H](CC(C)C)N(C)C(=O)C[C@@H](C(=O)N2CCCCC2)N(C)C(=O)[C@H](CCOC)N(C)C(=O)C2(CCCC2)NC(=O)[C@@H]2CCCN2C(=O)[C@H](CCc2ccc(C(F)(F)F)c(Cl)c2)NC(=O)CN(C)C(=O)[C@H](CC2CCCCC2)N(C)C(=O)[C@@H]2CCN2C(=O)[C@H](C)N(C)C1=O [Compound 141] ([NMeL]I[NMeA][Aze][NMeCha][Sar][hPhe(3-Cl-4-CF3)]P[Ac5c][NMehSer](Me)[NMeD]-Piperidide; lactam N-11) | > 500 nM
CC[C@H](C)[C@@H]1NC(=O)[C@H](CC(C)C)N(C)C(=O)C[C@H]2CCCCN2C(=O)[C@H](C(C)C)N(C)C(=O)C2(CCCC2)NC(=O)[C@@H]2CCCN2C(=O)[C@H](CCc2ccc(C(F)(F)F)c(F)c2)NC(=O)CN(C)C(=O)[C@H](CC2CCCCC2)N(C)C(=O)CN(C)C(=O)CN(C)C1=O [Compound 142] (cyclo([Ac5c][NMeV][dβ3hPip][NMeL]I[Sar][Sar][NMeCha][Sar][hPhe(3-F,4-CF3)]P)) | > 500 nM
CCCC[C@@H]1NC(=O)[C@H](Cc2cccc(I)c2)NC(=O)CN(C)C(=O)[C@H](Cc2ccc(Cl)cc2)N(C)C(=O)CN(C)C(=O)CN(C)C(=O)[C@H]([C@@H](C)CC)NC(=O)[C@H](CC(C)C)N(C)C(=O)C[C@@H](C(=O)N2CCCCC2)N(C)C(=O)[C@H](CC(C)C)NC(=O)[C@H](Cc2cccc(OC(F)(F)F)c2)N(C)C1=O [Compound 143] ([NMeL]I[Sar][Sar][NMePhe(4-Cl)][Sar][Phe(3-I)][Nle][X49]L[NMeD]-Piperidide; lactam N-11) | > 500 nM
